Assay results taken from patent US20240165108A1, “NOVEL USE” (GlaxoSmithKline Intellectual Property Development Limited, priority 2022, published 2024).

Assays:
[1] = system: human hair follicles; assay: Microscopic hair cycle staging in ex vivo hair follicle organ culture; format: cell-based; details: for percentage of hair follicles in the anagen phase: donors with healthy hair follicles
Source text: Compounds, at the concentrations indicated, are present throughout the duration of the hair follicle culture at 0.1% DMSO.

[2] = system: human hair follicles; assay: Dermal papilla area and melanin clumping, Fontana-Masson stained ex vivo hair follicles; format: cell-based; details: for dermal papilla area: healthy hair follicles
Experimental: Microscopic hair cycle staging: Hair cycle staging is performed at the end of the culture and can be determined according to several established parameters as described previously. Hair follicles are microscopically evaluated for the hair cycle staging using Masson-Fontana histochemistry and Ki-67/TUNEL immunostaining as previously described. […] Melanin clumps are indicated on the images by the orange arrows, and are counted in the Masson-fontana stained section at the end of the culture in a defined region of interest starting at the Auber's line and including the precortical hair matrix as described previously.

[3] = biological target: T1, GPR91 (Homo sapiens, UniProt Q9BXA5); assay: GTPyS G-protein functional assay; format: biochemical; set-up: host or cells: LUVA; details: read-out: Test compound pIC50, GTPyS (converted)
T1 sequence (Q9BXA5 1-334): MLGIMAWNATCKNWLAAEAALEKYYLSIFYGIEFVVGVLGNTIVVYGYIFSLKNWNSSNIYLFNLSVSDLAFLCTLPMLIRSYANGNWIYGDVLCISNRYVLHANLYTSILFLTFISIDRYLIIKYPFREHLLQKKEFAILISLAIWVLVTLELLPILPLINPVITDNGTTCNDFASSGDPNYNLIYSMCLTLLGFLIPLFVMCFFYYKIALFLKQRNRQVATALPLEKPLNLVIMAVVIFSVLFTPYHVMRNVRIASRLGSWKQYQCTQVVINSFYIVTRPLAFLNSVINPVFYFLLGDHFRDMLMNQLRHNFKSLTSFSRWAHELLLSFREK
Source text: (§1) GPR91 inhibition can be measured according to the art. For example, GPR91 inhibition may be measured by testing a compound in a G-protein functional assay such as Calcium flux, IP1 accumulation and GTPyS. GPR91 inhibition may be measured by testing a compound in phenotypic assays which measures a cytokine response that is relevant to the indication.

[4] = system: human hair follicles; assay: RNA sequencing of ex vivo cultured hair follicles; format: cell-based
Experimental: RNA extraction, sequencing and analysis were performed as follows; RNA from n=2-3 hair follicles per group was extracted using […]® PicoPure® RNA Isolation Kit (ThermoFisher) including a Dnase digestions step using the Rnase-Free Dnase Set from Qiagen and stored at −80 degrees Celsius until analysed. RNA concentration, purity and integrity were assessed before sequencing. Sequencing was performed on a NovaSeq 6000 using 2×100 bp read length with an output of approximately 30 M clusters (6 Gb per sample). Demultiplexing of the sequencing reads was performed with Illumina bcl2fastq (2.20).
Briefly, DESeq2 first creates a pseudo-reference sample (row-wise geometric mean) and calculates the ratio of each sample to this reference. Then, the normalization factor for each sample (size factor) is calculated using the median value of all ratios for a given sample. Normalized count values are created by dividing each raw count value in a given sample by that sample's normalization factor. Finally, DESeq2 calculates p values and adjusted p values for genes of two groups by allowing the shrinkage of the log 2 fold changes when the information for a gene is low (low counts or high dispersion values). For manual calculation of fold change (FC) between two groups, the ratio of the normalized read counts was used. And FC is considered relevant or significant if it is greater of equal to 2 (upregulation) or smaller that or equal to 0.5 (downregulation).

[5] = biological target: T1, GPR91; assay: IP1 accumulation; format: cell-based; set-up: host or cells: LUVA; details: read-out: Test compound pIC50, IP1 (converted)
Source text: as §1

[6] = biological target: T1, GPR91; assay: Calcium flux in HEK293; format: cell-based; details: read-out: Test compound pIC50, Calcium flux in HEK293 (converted)
Source text: as §1

[7] = biological target: T1, GPR91; assay: Succinate-stimulated secretion of PGD2 and cytokines/chemokines in LUVA cells; format: cell-based; set-up: host or cells: LUVA
Experimental: After the incubation, the cell suspension was centrifuged, and the supernatant was collected for downstream readouts of secreted factors including Prostaglandin D2 (PGD2) by ELISA (Cayman Chemical PGD2 EIA kit), and cytokines/chemokines TNFa, MIP1a and Eotaxin-3 by MSD (Mesoscale V-Plex Plus proinflammatory panel 1, Plus Chemokine Panel 1).
A GPR91 knockout in LUVA cells (received from Kerafast Inc) was generated using CRISPR technology with a single guide following protocols known in the art. The guide RNA sequence used was […] (SEQ ID NO: 4). The guide RNA cut location was chromosome 3: 151,880,674.

[8] = system: human hair follicles; assay: Versican immunofluorescence in dermal papilla of hair follicles; format: cell-based; details: healthy hair follicles
Source text: Versican immunofluorescence (as previously described in Soma et al J Dermatol Sci 2005, doi: 10.1016/j.jdermsci.2005.03.010) was used to determine hair follicle inductive properties.

[9] = system: human iPSC derived M2 macrophages; details: succinate present during macrophage polarization
Experimental: IPSC precursor cells were differentiated into macrophages using differentiation media known in the art followed by polarisation into M1 and M2 macrophage phenotypes using LPS+IFNg and IL4+IL13 stimulation, respectively.
The TREM2 primer probe set used to determine expression levels was purchased from ThermoFisher (Hs01003898_m1). Relative expression (AU: Arbitrary units) was calculated using 2^−dCT, where dCT is calculated as CT (TREM2)−CT(Housekeeper Gene). In these experiments, the housekeeper gene used was RPLP0 (ribosomal phosphoprotein PO) (Primer Probe purchased from ThermoFisher Assay ID: He00420895_gH).

[10] = system: dermal papilla cells
Experimental: iPSC were differentiated and polarized to an M2 like macrophage phenotype as previously described. […] Media was collected from the treated iPSC after 48 hours of incubation, which is referred to as conditioned media. The dermal papilla from both male and female donors were plated at 5K cells/well onto a collagen coated E-Plate and analysed using the XCELLIGENCE® platform according to the manufacturer's instructions. The cells are analysed in the machine for 24 hours to determine adherence to the plate and establishment of baseline measurements. After 24 hours, the media is aspirated, and macrophage conditioned media is added to the cells for up to 117 hours and the effects of the GPR91 dependent iPSC secretome on dermal papilla proliferation are analyzed.

[11] = system: hair matrix keratinocytes; details: hair follicles from healthy donors
Experimental: Hair follicle organ cultures ex vivo: Full length hair follicles were micro dissected from scalp skin or FUEs as above.
Quantitative evaluation of hair matrix keratinocyte proliferation and apoptosis is performed in Ki-67/TUNEL stained sections of the hair follicle. The germinative hair matrix keratinocyte proliferation is calculated as the percentage of KI-67 positive nuclei. Intra-follicular apoptosis is analyzed using TUNEL staining (TdT-mediated dUTP-biotin nick end labelling) as described previously.

[12] = biological target: T1, GPR91; details: TREM2 expressing M2 macrophages, succinate for 48 hr
Experimental: Oncostatin M levels were determined by ELISA (Abcam ab215543) according to the manufacturer's instructions.
Oncostatin M levels were determined by ELISA according to the manufacturer's instructions. […] Supernatants were collected and Oncostatin M levels were measured.

[13] = system: JAK-STAT signaling pathway; assay: STAT3/STAT5 phosphorylation in dermal papilla cells treated with oncostatin M; format: cell-based, human
Experimental: (§2) The downstream effects of recombinant oncostatin M was assessed by evaluating signalling pathways (such as the JAK-STAT pathway previously associated with oncostatin M induced senescence in mouse [Wang 2019, PMID 30930146]) and markers associated with senescence to link specific mediators in the macrophage secretome (like oncostatin M) to disease relevant mechanisms. Dermal papilla cells in culture were treated with recombinant oncostatin M protein from BioLegend. Tofacitinib was received from MedChemExpress as a ready-made 10 mM solution and used at the indicated concentration.
Protein quantification: protein was extracted after lysis with RIPA buffer and quantified by BCA using methods known in the art. Protein was loaded onto a gel and run with NuPage MES SDS running buffer and transferred onto nitrocellulose membrane using the iBlot2 according to manufacturer's instructions and procedures known in the art. The following primary antibodies were used to assess expression of the relative proteins described: Human anti-Total STAT5 antibody, Isotype (Rabbit polyclonal IgG) from Abcam, Human anti-Phospho STAT5 antibody, Isotype (Rabbit polyclonal IgG) from Abcam, Anti-Human total STAT3 (D3Z2G) from Cell Signaling Technologies, Anti-Human pSTAT3 (Y705) (D3A7) from Cell Signaling Technologies and the control antibody, β-Actin (8H10D10) Mouse IgG2b mAb from Cell Signaling Technologies. […]

[14] = system: dermal papilla cells; assay: FGF18 and BMP6 gene expression in dermal papilla cells (RT-qPCR); format: cell-based, human; details: oncostatin M 10 ng/ml and 100 ng/ml
Experimental: as §2
Gene expression: mRNA was extracted as previously described in example 1. […] The following Taqman probes were used to identify target specific mRNA transcripts: FGF18 (Assay ID: Hs00826077_m1), and BMP6 (Assay ID: Hs01099594_m1).

[15] = system: dermal papilla cells; assay: Beta galactosidase activity (senescence) in dermal papilla; format: cell-based, human
Experimental: as §2
Beta Galactosidase Activity: A B-Galactosidase Activity Assay Kit (Fluorescence, Plate-Based) from Cell Signalling Technology #23833 was used to assess cellular senescence. The instructions were followed according to the manufacturer's instructions.

[16] = affected scalp regions, 5 nM, 24 hours
[17] = LUVA cells, compound 1 hr prior to succinate stimulation, read-out: Test compound pIC50, MIP-1a (converted)
[18] = healthy hair follicles after succinate
[19] = LUVA cells, succinate 3 hours, MSD

Molecule: CN1CCN(Cc2ccc(-c3cccc(C(=O)Nc4ccccc4CC(=O)O)c3)cc2)CC1 [Compound 1, 2-(2-(4′-((4-methylpiperazin-1-yl)methyl)-[1,1′-biphenyl]-3-carboxamido)phenyl)acetic acid]
- percentage of hair follicles in the anagen phase [1]: increases the percentage of hair follicles in the anagen phase
- size of the dermal papilla area, representative images ([2]; 5 uM and 50 uM): increased size of the dermal papilla area
- dermal papilla area, AGA ([2]; AGA hair follicles, affected/balding region of the scalp): increases the dermal papilla area
- dermal papilla area [2]: increases the dermal papilla area
- IC50 [3]: 31.6 nM
- genes of apoptotic processes, cell chemotaxis and immune function [4, 16]: significant downregulation in genes that play a role in apoptotic processes, cell chemotaxis and immune function
- genes related to metabolic processes and biosynthesis of macromolecules [4, 16]: increase in genes related to increased metabolic processes and biosynthesis of macromolecules
- hair keratins gene expression [4, 16]: significant upregulation in hair keratins
- IC50 [5]: 100 nM
- IC50 [6]: 39.8 nM
- Test compound pIC50, PGD2 ([7]; LUVA cells, compound 1 hr prior to succinate stimulation): 7.6
- IC50 [7, 17]: 79.4 nM
- versican expression in the dermal papilla [8]: Increased versican expression

Molecule: O=C(CCCc1ccc2cccnc2n1)NCc1cc(-c2ccc(F)c(C(F)(F)F)c2)no1 [Compound 2, N-[{3-(3-trifluoromethyl-4-fluorophenyl)isoxazol-5-yl}methyl]-4-([1,8]naphthyridin-2-yl)butyramide]
- percentage of hair follicles in the anagen phase [1]: increases the percentage of hair follicles in the anagen phase
- IC50 [3]: 1260 nM
- IC50 [5]: 7940 nM
- IC50 [6]: 25.1 nM
- IC50 [7, 17]: 1000 nM
- IC50 ([7]; LUVA cells, compound 1 hr prior to succinate stimulation, read-out: Test compound pIC50, PGD2 (converted)): 63.1 nM

Molecule: O=C([O-])CCC(=O)[O-].[Na+].[Na+] [Succinate, Sodium succinate]
- TREM2 expression [9]: higher levels of expression of TREM2
- dermal papilla proliferation with conditioned media of succinate treated macrophages ([10]; 3 mM succinate, male and female donors): inhibit dermal papilla proliferation
- dermal papilla proliferation, succinate by itself ([10]; direct treatment of dermal papilla cells): does not induce any changes in the proliferation of dermal papilla cells
- percentage of hair follicles in the catagen phase ([1]; GPR91 activation by succinate): increases the percentage of hair follicles in the catagen phase
- toxicity to hair follicles ([1]; at high concentrations): highly toxic to hair follicles
- dermal papilla area [2]: decreased size of the dermal papilla area
- genes related to immune activation (cytokine and chemokine response) [4, 18]: increase in genes related to immune activation
- genes that regulate hair follicle pathways and keratins [4, 18]: significant downregulation in genes that regulate hair follicle pathways
- hair matrix keratinocyte proliferation [11]: reduces hair matrix keratinocyte proliferation
- apoptosis ([11]; TUNEL): increases apoptosis
- TNFa and MIP-1a response to succinate in GPR91 knockout ([7]; GPR91 knockout LUVA cell line, 3 hr and 72 hour): lack of response
- TNFa and MIP-1a response to succinate ([7]; LUVA cells, 3 hr and 72 hour post succinate addition): robust TNFa and MIP-1a response
- Succinate control pEC50, MIP-1a [7, 19]: 3.4
- Succinate control pEC50, TNF-α [7, 19]: 4.2
- Succinate control pEC50, PGD2 ([7]; LUVA cells, succinate 3 hours, PGD2 ELISA): 3.5
- oncostatin M secretion [12]: secrete higher levels of oncostatin M

Molecule: C[C@@H]1CCN(C(=O)CC#N)C[C@@H]1N(C)c1ncnc2[nH]ccc12 [Tofacitinib, reference compound]
- oncostatin M induced phosphorylation of STAT3 and STAT5 ([13]; JAK inhibitor co-treatment): can be blocked

Molecule: oncostatin M: recombinant oncostatin M protein from BioLegend; cytokine shown to induce hair follicle quiescence in mice
- JAK-STAT signaling, phosphorylation of STAT3 and STAT5 ([13]; recombinant oncostatin M applied to dermal papilla): activates the JAK-STAT signaling pathway
- expression of BMP6 [14]: downregulates expression of BMP6
- expression of FGF18 [14]: increases the expression of FGF18
- senescence, β-galactosidase activity [15]: induces senescence
